Measured values: patent publication USRE48461E1, “Modulation of androgen receptor expression” (Ionis Pharmaceuticals, Inc., priority 2012, dated 2021)
Oligonucleotides are written 5' to 3', each unit as a sugar letter and its base; * is a phosphorothioate linkage, no mark a phosphodiester; rarer units and linkages stand in square brackets, end groups in braces. Plain capitals give the bases only. k = constrained ethyl (cEt); [5mC] = 5-methylcytosine; d = 2'-deoxy (DNA)

What was measured:
[1] = tested on: AR mRNA; test: Antisense inhibition of human AR in HuVEC cells, single concentration (electroporation, qRT-PCR RTS3559); assay type: cell-based
Outline: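 HuVEC cells electroporated with antisense oligonucleotides at a single concentration. AR mRNA quantified by qRT-PCR using human primer-probe set RTS3559 and normalised to total RNA content by RIBOGREEN.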

[2] = tested on: AR mRNA; test: Dose-dependent antisense inhibition of human AR in HuVEC cells (electroporation, qRT-PCR RTS3559, IC50); assay type: cell-based; conditions: for inhibition of AR mRNA at 46.9 nM: 46.9 nM ASO; for inhibition of AR mRNA at 187.5 nM: 187.5 nM ASO; for inhibition of AR mRNA at 750.0 nM: 750.0 nM ASO; for inhibition of AR mRNA at 3000.0 nM: 3000.0 nM ASO
Outline: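 HuVEC cells dosed with antisense oligonucleotides by electroporation and treated approximately 16 hours. AR mRNA quantified by real-time qPCR with primer probe set RTS3559 and normalised to total RNA by RIBOGREEN; IC50 from dose-response.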

[3] = tested on: AR mRNA; test: AR mRNA in LnCaP cells by free uptake (hAR_LTS00943); assay type: cell-based, human; conditions: 24 hrs
Description: Cells were plated at a concentration of 4,000 cells/well in 96-well plates. ISIS oligonucleotides, specified in Table 68, were added individually at 0.02 μM, 0.10 μM, 0.50 μM, 2.50 μM, or 10.00 μM. After an incubation period of 24 hrs, mRNA levels were measured using primer probe set hAR_LTS00943.

[4] = tested on: AR mRNA; test: AR mRNA in liver, heart, skeletal muscle, kidney, prostate of cynomolgus monkeys; assay type: in vivo; conditions: cynomolgus monkey, 40 mg/kg subcutaneously
Description: Cynomolgus monkeys were treated with ISIS antisense oligonucleotides selected from studies described above. Antisense oligonucleotide efficacy and tolerability were evaluated. The human antisense oligonucleotides tested are cross-reactive with the rhesus genomic sequence (GENBANK Accession No. NW_001218131.1 truncated from nucleotides 134001 to 308000 and designated herein as SEQ ID NO: 189). The target start site and target region of each oligonucleotide to SEQ ID NO: 189, as well as the details of their chemistry and sequence, is presented in Table 133.
RNA was extracted from liver, heart, skeletal muscle, kidney, and prostate tissues for real-time PCR analysis of AR using primer probe set RTS3559. The results were normalized to RIBOGREEN®. Results are presented as percent inhibition of AR mRNA, relative to PBS control.

[5] = 46.9 nM, HuVEC, ~16 h, Table 15
[6] = 187.5 nM, HuVEC, ~16 h, Table 15
[7] = 750.0 nM, HuVEC, ~16 h, Table 15
[8] = 3000.0 nM, HuVEC, ~16 h, Table 15

Row | Substance | Percent inhibition of AR mRNA ([3]; 0.02 μM) [%] | Percent inhibition of AR mRNA ([3]; 0.1 μM) [%] | Percent inhibition of AR mRNA ([3]; 0.5 μM) [%] | Percent inhibition of AR mRNA ([3]; 10 μM) [%] | % inhibition ([1]; 1,000 nM ASO, ~24 h, Table 13) [%] | percent inhibition of AR [2, 5] [%] | percent inhibition of AR [2, 6] [%] | percent inhibition of AR [2, 7] [%] | percent inhibition of AR [2, 8] [%] | IC50 ([2]; HuVEC cells, electroporation) [nM] | inhibition of AR mRNA at 46.9 nM ([2]; HuVEC cells, electroporation) [%] | inhibition of AR mRNA at 187.5 nM ([2]; HuVEC cells, electroporation) [%] | inhibition of AR mRNA at 750.0 nM ([2]; HuVEC cells, electroporation) [%] | inhibition of AR mRNA at 3000.0 nM ([2]; HuVEC cells, electroporation) [%] | IC50 ([2]; HuVEC, ~16 h, Table 15) [nM] | further results
1 | 583918 (kA*kG*kT*d[5mC]*dG*d[5mC]*dG*dA*d[5mC]*dT*d[5mC]*dT*dG*kG*kT*kA) [compound 583918] | 8 | 0 | 0 | 13 |  |  |  |  |  |  |  |  |  |  |  | % inhibition ([1]; Table 21, 500 nM oligonucleotide, electroporation, approximately 24 hours, relative to untreated control): 47%; percent inhibition of AR, 46.9 nM ([2]; Table 33, 46.9 nM, HuVEC, electroporation, approximately 16 hours): 16%; percent inhibition of AR, 187.5 nM ([2]; Table 33, 187.5 nM, HuVEC, electroporation, approximately 16 hours): 47%; percent inhibition of AR, 750.0 nM ([2]; Table 33, 750.0 nM, HuVEC, electroporation, approximately 16 hours): 68%; percent inhibition of AR, 3000.0 nM ([2]; Table 33, 3000.0 nM, HuVEC, electroporation, approximately 16 hours): 86%; IC50 ([2]; Table 33, HuVEC, electroporation, approximately 16 hours): 300 nM; Percent Inhibition of AR mRNA relative to the PBS control, Heart ([4]; weeks 1 to 6, Heart): 76%; Percent Inhibition of AR mRNA relative to the PBS control, Kidney ([4]; weeks 1 to 6, Kidney): 73%; Percent Inhibition of AR mRNA relative to the PBS control, Liver ([4]; weeks 1 to 6, Liver): 88%; Percent Inhibition of AR mRNA relative to the PBS control, Prostate ([4]; weeks 1 to 6, Prostate): 58%; Percent Inhibition of AR mRNA relative to the PBS control, Skeletal Muscle ([4]; weeks 1 to 6, Skeletal Muscle): 74%
2 | 586124 (kG*kA*kT*dT*dT*dA*dA*dT*dG*dG*dT*dT*dG*k[5mC]*kA*kA; further chemistry not given here) [compound 586124] | 0 | 0 | 19 | 82 | 82 | 28 | 47 | 84 | 94 | 130 | 28 | 47 | 84 | 94 | 130 | 
3 | 586227 (kT*kG*kA*kT*kT*dT*dA*dA*dT*dG*dG*dT*dT*kG*k[5mC]*kA; antisense) [compound 586227] | 0 | 0 | 14 | 59 | 87 | 20 | 60 | 88 | 96 | 130 | 20 | 60 | 88 | 96 | 130 | 
